System: tobacco budworm (Heliothis virescens [Fabricius])
Assay: surface-treated diet test against the tobacco budworm
Assay type: in vivo
Settings: tobacco budworm second instar larvae; surface-treated diet; 0.25 millimoles of candidate insecticide on the surface of the diet; five-day exposure; compared to total number of insects infested
Method in brief: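 Wheat germ artificial diet surface-treated with 40 µL of 50 mM DMSO stock diluted 1:7 in 1:1 water/acetone (0.25 millimolar on diet), or sub-multiples for rate tests. One second-instar larva per well, 25° C, 60% RH, 5 days; percent weight inhibition vs DMSO controls and percent mortality.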

Compound | Percent Mortality [%]
CCn1nnc(-c2ccc(CN3CCC(C(OC(=O)Nc4ccc(Cl)cc4)c4cc(Cl)cc(Cl)c4)CC3)cc2)n1 (stereo not drawn) [Compound 577] | 100
CCNC(=S)Nc1ccc(CN2CCC(C(OC(=O)Nc3cc(F)cc(F)c3)c3ccc(C(F)(F)F)cc3)CC2)cc1 (stereo not drawn) [Compound 518] | 17
COc1ccc(OC(=O)NC(c2ccc(OC(F)(F)F)cc2)C2CCN(Cc3ccc(-c4nnn(C)n4)cc3)CC2)cc1 (stereo not drawn) [Compound 356] | 100
CC(=O)Nc1ccc(CN2CCC(C(OC(=O)Nc3cc(F)cc(F)c3)c3ccc(C(F)(F)F)cc3)CC2)cc1 (stereo not drawn) [Compound 495] | 0
CCON=Cc1ccc(CN2CCC(C(OC(=O)Nc3cccc(F)c3)c3ccc(F)cc3)CC2)cc1 (stereo not drawn) [Compound 527] | 100
CCn1nnc(-c2ccc(CN3CCC(C(OC(=O)Nc4ccc(Oc5ccccc5)cc4)c4ccc(Oc5ccccc5)cc4)CC3)cc2)n1 (stereo not drawn) [Compound 622] | 0
O=C(Nc1cc(F)cc(F)c1)OC(c1ccc(C(F)(F)F)cc1)C1CCN(Cc2ccc(-n3cccn3)cc2)CC1 (stereo not drawn) [Compound 556] | 100
CCn1nnc(-c2ccc(CN3CCC(C(OC(=O)Nc4ccc(C(F)(F)F)cc4)c4cc(F)cc(F)c4)CC3)cc2)n1 (stereo not drawn) [Compound 594] | 100
O=C(Nc1c(F)cccc1F)OC(c1ccc(C(F)(F)F)cc1)C1CCN(Cc2ccc(Oc3ccccn3)cc2)CC1 (stereo not drawn) [Compound 241] | 100
O=C(Nc1cc(Cl)c(Cl)cc1Cl)OC(c1ccc(C(F)(F)F)cc1)C1CCN(Cc2ccc(Oc3ccccn3)cc2)CC1 (stereo not drawn) [Compound 234] | 100
CC(C)OC(=O)c1ccc(C[N+]2([O-])CCC(=C(c3ccc(C(F)(F)F)cc3)c3ccc(C(F)(F)F)cc3)CC2)cc1 (stereo not drawn) [Compound 100] | 100
CCON=Cc1ccc(CN2CCC(C(OC(=O)Nc3cc(F)cc(F)c3)c3ccc(Cl)cc3Cl)CC2)cc1 (stereo not drawn) [Compound 531] | 100
Cn1nnc(-c2ccc(CN3CCC(C(NC(=O)c4ccc(I)cc4)c4ccc(OC(F)(F)F)cc4)CC3)cc2)n1 (stereo not drawn) [Compound 329] | 50
Cn1nnc(-c2ccc(CN3CCC(C(OC(=O)Nc4ccc(F)cc4)c4ccc(Cl)cc4)CC3)cc2)n1 (stereo not drawn) [Compound 274] | 100
CCCOc1ccc(CN2CCC(C(OC(=O)Nc3ccc(Cl)cc3)c3ccc(F)cc3)CC2)cc1 (stereo not drawn) [Compound 475] | 100
CCOC(=O)c1ccc(CN2CCC(=C(c3ccc(C(F)(F)F)cc3)c3ccc(C(F)(F)F)cc3)CC2)cc1 [Compound 50] | 67
C#CCON=Cc1ccc(CN2CCC(C(OC(=O)Nc3ccc(Cl)cc3)c3ccc(C(F)(F)F)cc3)CC2)cc1 (stereo not drawn) [Compound 539] | 100
CCON=Cc1ccc(CN2CCC(C(OC(=O)Nc3ccc(Br)cc3C(F)(F)F)c3ccc(C(F)(F)F)cc3)CC2)cc1 (stereo not drawn) [Compound 208] | 100
Cc1ccc(S(=O)(=O)NC(=O)OC(c2ccc(C(F)(F)F)cc2)C2CCN(Cc3ccc(Oc4ccccn4)cc3)CC2)cc1 (stereo not drawn) [Compound 696] | 0
O=C(Nc1ccc(F)cc1)OC(c1ccc(C(F)(F)F)cc1)C1CCN(Cc2ccc(-n3cncn3)cc2)CC1 (stereo not drawn) [Compound 557] | 0
Cn1nnc(-c2ccc(CN3CCC(C(OC(=O)Nc4cccc(F)c4)c4ccc(OC(F)(F)F)cc4)CC3)cc2)n1 (stereo not drawn) [Compound 273] | 100
[O-][N+]1(Cc2ccc(Oc3ccccn3)cc2)CCC(C(Oc2ccc(C(F)(F)F)cn2)c2ccc(C(F)(F)F)cc2)CC1 (stereo not drawn) [Compound 442] | 100
CCn1nnc(-c2ccc(CN3CCC(C(OC(=O)Nc4cc(C(F)(F)F)cc(C(F)(F)F)c4)c4ccc(C(F)(F)F)cc4)CC3)cc2)n1 (stereo not drawn) [Compound 293] | 17
CCn1nnc(-c2ccc(CN3CCC(C(OC(=O)Nc4ccc(C(F)(F)F)cc4)c4ccc(OC)cc4)CC3)cc2)n1 (stereo not drawn) [Compound 606] | 100

Same assay, conditions: tobacco budworm second instar larvae; surface-treated diet; 0.25 millimoles of candidate insecticide on the surface of the diet; five-day exposure; inhibition of insect weight relative to untreated controls

Compound | Percent Growth Inhibition [%]
CCn1nnc(-c2ccc(CN3CCC(C(OC(=O)Nc4ccc(Cl)cc4)c4cc(Cl)cc(Cl)c4)CC3)cc2)n1 (stereo not drawn) [Compound 577] | 100
CCNC(=S)Nc1ccc(CN2CCC(C(OC(=O)Nc3cc(F)cc(F)c3)c3ccc(C(F)(F)F)cc3)CC2)cc1 (stereo not drawn) [Compound 518] | 96
COc1ccc(OC(=O)NC(c2ccc(OC(F)(F)F)cc2)C2CCN(Cc3ccc(-c4nnn(C)n4)cc3)CC2)cc1 (stereo not drawn) [Compound 356] | 100
CC(=O)Nc1ccc(CN2CCC(C(OC(=O)Nc3cc(F)cc(F)c3)c3ccc(C(F)(F)F)cc3)CC2)cc1 (stereo not drawn) [Compound 495] | 98
CCON=Cc1ccc(CN2CCC(C(OC(=O)Nc3cccc(F)c3)c3ccc(F)cc3)CC2)cc1 (stereo not drawn) [Compound 527] | 100
CCn1nnc(-c2ccc(CN3CCC(C(OC(=O)Nc4ccc(Oc5ccccc5)cc4)c4ccc(Oc5ccccc5)cc4)CC3)cc2)n1 (stereo not drawn) [Compound 622] | 4
O=C(Nc1cc(F)cc(F)c1)OC(c1ccc(C(F)(F)F)cc1)C1CCN(Cc2ccc(-n3cccn3)cc2)CC1 (stereo not drawn) [Compound 556] | 100
CCn1nnc(-c2ccc(CN3CCC(C(OC(=O)Nc4ccc(C(F)(F)F)cc4)c4cc(F)cc(F)c4)CC3)cc2)n1 (stereo not drawn) [Compound 594] | 100
O=C(Nc1c(F)cccc1F)OC(c1ccc(C(F)(F)F)cc1)C1CCN(Cc2ccc(Oc3ccccn3)cc2)CC1 (stereo not drawn) [Compound 241] | 100
O=C(Nc1cc(Cl)c(Cl)cc1Cl)OC(c1ccc(C(F)(F)F)cc1)C1CCN(Cc2ccc(Oc3ccccn3)cc2)CC1 (stereo not drawn) [Compound 234] | 100
CC(C)OC(=O)c1ccc(C[N+]2([O-])CCC(=C(c3ccc(C(F)(F)F)cc3)c3ccc(C(F)(F)F)cc3)CC2)cc1 (stereo not drawn) [Compound 100] | 100
CCON=Cc1ccc(CN2CCC(C(OC(=O)Nc3cc(F)cc(F)c3)c3ccc(Cl)cc3Cl)CC2)cc1 (stereo not drawn) [Compound 531] | 100
Cn1nnc(-c2ccc(CN3CCC(C(NC(=O)c4ccc(I)cc4)c4ccc(OC(F)(F)F)cc4)CC3)cc2)n1 (stereo not drawn) [Compound 329] | 99
Cn1nnc(-c2ccc(CN3CCC(C(OC(=O)Nc4ccc(F)cc4)c4ccc(Cl)cc4)CC3)cc2)n1 (stereo not drawn) [Compound 274] | 100
CCCOc1ccc(CN2CCC(C(OC(=O)Nc3ccc(Cl)cc3)c3ccc(F)cc3)CC2)cc1 (stereo not drawn) [Compound 475] | 100
CCOC(=O)c1ccc(CN2CCC(=C(c3ccc(C(F)(F)F)cc3)c3ccc(C(F)(F)F)cc3)CC2)cc1 [Compound 50] | 96
C#CCON=Cc1ccc(CN2CCC(C(OC(=O)Nc3ccc(Cl)cc3)c3ccc(C(F)(F)F)cc3)CC2)cc1 (stereo not drawn) [Compound 539] | 100
CCON=Cc1ccc(CN2CCC(C(OC(=O)Nc3ccc(Br)cc3C(F)(F)F)c3ccc(C(F)(F)F)cc3)CC2)cc1 (stereo not drawn) [Compound 208] | 100
Cc1ccc(S(=O)(=O)NC(=O)OC(c2ccc(C(F)(F)F)cc2)C2CCN(Cc3ccc(Oc4ccccn4)cc3)CC2)cc1 (stereo not drawn) [Compound 696] | 32
O=C(Nc1ccc(F)cc1)OC(c1ccc(C(F)(F)F)cc1)C1CCN(Cc2ccc(-n3cncn3)cc2)CC1 (stereo not drawn) [Compound 557] | 86
Cn1nnc(-c2ccc(CN3CCC(C(OC(=O)Nc4cccc(F)c4)c4ccc(OC(F)(F)F)cc4)CC3)cc2)n1 (stereo not drawn) [Compound 273] | 100
[O-][N+]1(Cc2ccc(Oc3ccccn3)cc2)CCC(C(Oc2ccc(C(F)(F)F)cn2)c2ccc(C(F)(F)F)cc2)CC1 (stereo not drawn) [Compound 442] | 100
CCn1nnc(-c2ccc(CN3CCC(C(OC(=O)Nc4cc(C(F)(F)F)cc(C(F)(F)F)c4)c4ccc(C(F)(F)F)cc4)CC3)cc2)n1 (stereo not drawn) [Compound 293] | 93
CCn1nnc(-c2ccc(CN3CCC(C(OC(=O)Nc4ccc(C(F)(F)F)cc4)c4ccc(OC)cc4)CC3)cc2)n1 (stereo not drawn) [Compound 606] | 100

Reference: patent US7300946B2, “N-(substituted arylmethyl)-4-(disubstituted methyl) piperidines and pyridines” (Bayer CropScience AG, priority 2002, dated 2007)
